Literature values in patent publication US9017727B2, “Amino acid composition with improved dispersibility” (N.V. Nutricia, priority 2009, dated 2015).

Details: in water at 20 degrees Celsius

Solubility (at 20° C.) (g/100 ml)	Compound
4.8	CSCC[C@H](N)C(=O)O [Methionine]
2.38	CC(C)C[C@H](N)C(=O)O [Leucine]
2.74	N[C@@H](Cc1ccccc1)C(=O)O [Phenylalanine]
3.73	NC(=O)CC[C@H](N)C(=O)O [Glutamine]
3.84	N[C@@H](Cc1c[nH]cn1)C(=O)O [Histidine]
17	CC(=O)N[C@@H](CS)C(=O)O [N-acetyl cysteine]
16	N[C@@H](CS)C(=O)O [Cysteine]
1.06	N[C@@H](Cc1c[nH]c2ccccc12)C(=O)O [Tryptophan]
4.02	CC[C@H](C)[C@H](N)C(=O)O [Isoleucine]
102	Cysteine HCL-anhydrous
0.009	N[C@@H](CSSC[C@H](N)C(=O)O)C(=O)O [Cystine]
15.8	C[C@H](N)C(=O)O [L-Alanine]
5.75	CC(C)[C@H](N)C(=O)O [Valine]
